Experimental data reported in US9302018B2, “Fluorescent probe for imaging lymph nodes” (Eisai R&D Management Co., Ltd., priority 2010, dated 2016).
Values belong to the molecule of their own block, whether it stands above or below them.

Legend:
[1] = Maximum absorbance wavelength and molar extinction coefficient in ethanol; format: physicochemical; conditions: for Molar Extinction Coefficient (ε): in ethanol; for λmax (EtOH): maximum absorbance wavelength in ethanol
[2] = Fluorescence detectability of fluorescent probe in vitro (brightness score, Image J); format: physicochemical; conditions: excitation <780 nm, fluorescence >810 nm
Protocol: Near-infrared fluorescence intensity was measured for the fluorescent dye-containing liposomes prepared in the manner described above with an aqueous solution of ICG serving as a control. 100 μL of liposome suspension containing a dye of a predetermined concentration or the ICG aqueous solution were added to a 96-well plate and irradiated with excitation light (LED light source, <780 nm) to detect the generated fluorescence (>810 nm). Brightness was evaluated using Image J image processing software.
In the table, values indicate the brightness score as determined with the Image J software (maximum value: 255), with the values shown in parentheses indicate the standard deviation.

[3] = Fluorescence lifetime (TemPro fluorescence lifetime photometer); format: physicochemical; conditions: excitation 740 nm, fluorescence 816 nm
Protocol: The fluorescence lifetimes of the fluorescence probes of the present invention were measured. The TemPro fluorescence lifetime photometer (manufactured by Horiba, Ltd.) was used for measurement. Table 3 indicates the values for a chloroform solution containing each near-infrared fluorescent dye at a concentration of 3.2×10^−2 mM and an aqueous solution of ICG (control), and Table 4 indicates values obtained from each of the near-infrared fluorescent dyes incorporated in the liposomes at a concentration of 3.2×10^−2 mM. A 740 nm semiconductor laser was used for the excitation light, and the lifetime spectra obtained at a fluorescence wavelength of 816 nm was analyzed for two components.

[4] = system: mouse popliteal lymph node; experiment: Fluorescent probe anchoring property in mouse popliteal lymph node; format: in vivo
Protocol: In order to investigate the lymph node anchoring property of the fluorescent probe, an ICG-8-containing fluorescent probe dispersion (liposome mean particle diameter: 240 nm, 0.2 mL, phospholipid concentration: 10 mM) or an ICG aqueous solution serving as a control (0.2 mL, 3.2 mM) was injected into the foreleg of mice (FIG. 6A) in the same manner as Example 5. Ten minutes later, the epidermal tissue was peeled off, and the site was irradiated with excitation light (LED light source, <780 nm) and the generated fluorescence (>810 nm) was detected with a monochromatic camera.
To investigate primary lymph node anchoring rate after the passage of a prescribed amount of time, an ICG-8-containing fluorescent probe or ICG aqueous solution was administered to mice in the same manner as described above. […] The p-values were calculated using Fisher's exact test.

[5] = chloroform solution, 3.2×10^−2 mM

Molar Extinction Coefficient (ε) [1]: 2.63×10^5
λmax (EtOH) [1]: 788 nm
Compound: CCCCCCCCN1/C(=C/C=C/C=C/C=C/C2=[N+](CCCCS(=O)(=O)[O-])c3ccc4ccccc4c3C2(C)C)C(C)(C)c2c1ccc1ccccc21 [ICG-8-C8, 4(2-((1E,3E,5E,7E)-7-(1,1-dimethyl-3-octyl-1H-benzo[e]indol-2(3H)-ylidene)hepta-1,3,5-trienyl)-1,1-dimethyl-1H-benzo[e]indolium-3-yl)butane-1-sulfonic acid]

Compound: CCCCCCN(CCCCCC)c1ccc(OC2=C(/C=C/C3=[N+](CCCCS(=O)(=O)[O-])c4ccc5ccccc5c4C3(C)C)CCC/C2=C\C=C2\N(CCCCS(=O)(=O)[O-])c3ccc4ccccc4c3C2(C)C)cc1.[Na+] [ICG-9, sodium [4-(2-((E)-2-((E)-2-(4-(dihexyamino)phenoxy)-3-((E)-2-(1,1-dimethyl-3-(4-sulfonatebutyl)-1H-benzo[e]indol-2(3H)-ylidene)ethylidene)cyclohexenyl)vinyl)-1,1-dimethyl-1H-benzo[e]indolium-3-yl)butane-1-sulfonate]]
Molar Extinction Coefficient (ε) [1]: 1.24×10^5
λmax (EtOH) [1]: 810 nm

Molar Extinction Coefficient (ε) [1]: 1.86×10^5
λmax (EtOH) [1]: 786 nm
Compound: CC1(C)C(/C=C/C=C/C=C/C=C2/N(CCC(=O)O)c3ccc4ccccc4c3C2(C)C)=[N+](CCCCS(=O)(=O)[O-])c2ccc3ccccc3c21 [ICG-6, 4-(2-((1E,3E,5E,7E)-7-(3-(2-carboxyethyl)-1,1-dimethyl-1H-benzo[e]indol-2-(3H)-ylidene)hepta-1,3,5-trienyl)-1,1-dimethyl-1H-benzo[e]indolium-3-yl)butane-1-sulfonic acid]

Molar Extinction Coefficient (ε) [1]: 2.52×10^5
λmax (EtOH) [1]: 787 nm
Compound: CCCCN1/C(=C/C=C/C=C/C=C/C2=[N+](CCCCS(=O)(=O)[O-])c3ccc4ccccc4c3C2(C)C)C(C)(C)c2c1ccc1ccccc21 [ICG-8-C4, 4(2-((1E,3E,5E,7E)-7-(1,1-dimethyl-3-butyl-1H-benzo[e]indol-2(3H)-ylidene)hepta-1,3,5-trienyl)-1,1-dimethyl-1H-benzo[e]indolium-3-yl)butane-1-sulfonic acid]

Compound: CC1(C)C(/C=C/C=C/C=C/C=C2\N(CCCCS(=O)(=O)[O-])c3ccc4ccccc4c3C2(C)C)=[N+](CCCCS(=O)(=O)[O-])c2ccc3ccccc3c21.[Na+] [ICG, Indocyanine green]
Molar Extinction Coefficient (ε) [1]: 1.47 × 10^5
λmax (EtOH) [1]: 787 nm
brightness score (Image J, maximum value: 255), SD in parentheses ([2]; dye concentration 3.2 mM): 27(5)
brightness score (Image J, maximum value: 255), SD in parentheses ([2]; dye concentration 3.2 × 10−1 mM): 38(6)
brightness score (Image J, maximum value: 255), SD in parentheses ([2]; dye concentration 3.2 × 10−2 mM): 98(5)
brightness score (Image J, maximum value: 255), SD in parentheses ([2]; dye concentration 3.2 × 10−3 mM): 118(10)
brightness score (Image J, maximum value: 255), SD in parentheses ([2]; dye concentration 3.2 × 10−4 mM): 61(7)
Fluorescence lifetime, first component (ns) ([3]; aqueous solution (control)): 0.01~0.15 ns
No. of mice in which fluorescence was observed in primary lymph node only/total no. of mice in experiment ([4]; 1 h elapsed from administration): 0/4
No. of mice in which fluorescence was observed in primary lymph node only/total no. of mice in experiment ([4]; 3 h elapsed from administration): 2/5
No. of mice in which fluorescence was observed in primary lymph node only/total no. of mice in experiment ([4]; 6 h elapsed from administration): 0/4
No. of mice in which fluorescence was observed in primary lymph node only/total no. of mice in experiment ([4]; 24 h elapsed from administration): 0/3
Lymph nodes from which fluorescence was detected ([4]; mice, 0.2 mL into foreleg, ten minutes later, probe liposome mean particle diameter 240 nm, ICG aqueous solution 3.2 mM): emitted at the first popliteal lymph node from the foreleg as well as from the second external iliac lymph node

Molar Extinction Coefficient (ε) [1]: 2.34×10^5
λmax (EtOH) [1]: 787 nm
Fluorescence lifetime, first component (%) [3, 5]: 69%
Fluorescence lifetime, first component (ns) [3, 5]: 1.25 ns
Fluorescence lifetime, second component (%) [3, 5]: 31%
Fluorescence lifetime, second component (ns) [3, 5]: 0.31 ns
Compound: CCCCCCN1/C(=C/C=C/C=C/C=C/C2=[N+](CCCCS(=O)(=O)[O-])c3ccc4ccccc4c3C2(C)C)C(C)(C)c2c1ccc1ccccc21 [ICG-8-C6, 4(2-((1E,3E,5E,7E)-7-(1,1-dimethyl-3-hexyl-1H-benzo[e]indol-2(3H)-ylidene)hepta-1,3,5-trienyl)-1,1-dimethyl-1H-benzo[e]indolium-3-yl)butane-1-sulfonic acid]

Molar Extinction Coefficient (ε) [1]: 2.50 × 10^5
λmax (EtOH) [1]: 788 nm
Fluorescence lifetime, first component (%) [3, 5]: 67%
Fluorescence lifetime, first component (ns) [3, 5]: 1.27 ns
Fluorescence lifetime, second component (%) [3, 5]: 33%
Fluorescence lifetime, second component (ns) [3, 5]: 0.41 ns
Compound: CCCCCCCCCCN1/C(=C/C=C/C=C/C=C/C2=[N+](CCCCS(=O)(=O)[O-])c3ccc4ccccc4c3C2(C)C)C(C)(C)c2c1ccc1ccccc21 [ICG-8-C10, 4(2-((1E,3E,5E,7E)-7-(1,1-dimethyl-3-decyl-1H-benzo[e]indol-2(3H)-ylidene)hepta-1,3,5-trienyl)-1,1-dimethyl-1H-benzo[e]indolium-3-yl)butane-1-sulfonic acid]
